Measurements reported in ChEMBL document CHEMBL1201862, “PubChem BioAssay data set” (2004).
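In this assay, cells in 96-well plates receive the compound at five concentrations for 48 hours. Endpoints are linearly interpolated between the surrounding concentrations. GI50: concentration for 50% inhibition of growth.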 Active and inactive are the calls of the source. Cut-off read from the data, not from the text of the source: active = GI50 up to about 1.1 µM and inactive = higher.

Tests used:
Assay in all cases: inhibition of tumour cell growth, NCI panel, 48 h
[1] = system: Hs-578T
[2] = system: MDA-MB-231
[3] = system: T47D
[4] = system: LXFL 529
[5] = system: DMS-114
[6] = system: KM-20L2
[7] = system: SNB-78

SMILES | GI50 [1] | GI50 [2] | GI50 [3] | GI50 [4] | GI50 [5] | GI50 [6] | GI50 [7]
CC(=O)O[C@H]1C(=O)N(c2cc3c4ccccc4ccc3c3ccccc23)[C@@H]1c1ccccc1 | 5.16 µM (inactive) | 10.9 µM (inactive) | 6.01 µM (inactive) | – | – | – | –
CC(C)(C)OCC1NC(=O)[C@@H]2Cc3c([nH]c4ccccc34)C(C3CCCCC3)N2C1=O (some centres not stated) | 20.8 µM (inactive) | 17.4 µM (inactive) | 20.6 µM (inactive) | – | – | – | –
CS(=O)(=O)NNS(=O)(=O)c1ccccc1 | – | – | – | > 100 µM (inactive) | > 100 µM (inactive) | > 100 µM (inactive) | –
O=C(n1c(=O)n(-c2ccc(Cl)cc2)c(=O)n1C(=O)C(Cl)(Cl)Cl)C(Cl)(Cl)Cl | > 100 µM (inactive) | 7.67 µM (inactive) | > 100 µM (inactive) | – | – | – | –
Cc1cc(O)ccc1C1(c2ccc(F)cc2)OC(=O)c2ccccc21 (configuration not stated) | 0.263 µM (active) | 7.01 µM (inactive) | 0.318 µM (active) | – | – | – | –
CCCCC(=O)Oc1ccc2c(C)cc(=O)oc2c1 | > 100 µM (inactive) | > 100 µM (inactive) | > 100 µM (inactive) | – | – | – | –
CN(C)CCNC1=Nc2ccccc2C(=O)N2CSCC12 (configuration not stated) | > 100 µM (inactive) | > 100 µM (inactive) | > 100 µM (inactive) | – | – | – | –
CC(C)(C)OC(=O)NC(Cc1ccccc1)C(=O)OCN1C(=O)C2C3C=CC(C2C1=O)C1C2C(=O)N(COC(=O)C(Cc4ccccc4)NC(=O)OC(C)(C)C)C(=O)C2C31 (configuration not stated) | 18.7 µM (inactive) | 29.7 µM (inactive) | 36.3 µM (inactive) | – | – | – | –
O=C(CC(C(=O)c1ccoc1)c1ccco1)c1ccco1 (configuration not stated) | > 100 µM (inactive) | 18.6 µM (inactive) | > 100 µM (inactive) | – | – | – | –
CCOC(=O)/C(=C/c1ccc(C(=O)OC)cc1)N(CC)CC | – | – | – | 50.6 µM (inactive) | 32.3 µM (inactive) | 31.2 µM (inactive) | 24.4 µM (inactive)
Cc1ccc(-c2cnc(NC3OC(COC(=O)c4ccccc4)C(OC(=O)c4ccccc4)C(OC(=O)c4ccccc4)C3OC(=O)c3ccccc3)s2)cc1 (configuration not stated) | 82 µM (inactive) | > 100 µM (inactive) | > 100 µM (inactive) | – | – | – | –
NC(CC(O)(c1ccccc1)c1ccccc1)c1ccccc1S (configuration not stated) | 20.3 µM (inactive) | 17.1 µM (inactive) | 16.8 µM (inactive) | – | – | – | –
CCOC(=O)CCC(NC(=O)c1ccc(N2CCN(c3c(C)nc(N)nc3N)CC2)cc1)C(=O)OCC (configuration not stated) | > 100 µM (inactive) | > 100 µM (inactive) | > 88.9 µM (inactive) | – | – | – | –
COc1cc(C(=O)N(C(=S)OC23CC4CC(CC(C4)C2)C3)c2ccccc2)cc(OC)c1OC | 27.4 µM (inactive) | 33.4 µM (inactive) | 43.2 µM (inactive) | – | – | – | –
COC(=O)[C@@]12CC[C@]1(C(=O)OC)C1C(C)=CC(=O)O[C@@]12C (some centres not stated) | > 100 µM (inactive) | > 100 µM (inactive) | > 100 µM (inactive) | – | – | – | –
COc1ccc(C2NC(=S)Nc3c2c(=O)oc2c3ccc3ccccc32)cc1 (configuration not stated) | 75.7 µM (inactive) | 57.8 µM (inactive) | 50.6 µM (inactive) | – | – | – | –
O=C(Sc1n[nH]c(=O)[nH]c1=O)c1cccc2nc3ccccc3nc12 | 20 µM (inactive) | > 100 µM (inactive) | > 100 µM (inactive) | – | – | – | –
CSCCC(NCc1c(O)ccc2ccc(=O)oc12)C(=O)O (configuration not stated) | 4.78 µM (inactive) | > 100 µM (inactive) | > 100 µM (inactive) | – | – | – | –
O=C1NC(=O)C(C(CC(=O)c2ccc([N+](=O)[O-])cc2)c2ccccc2)C(=O)N1 (configuration not stated) | 10.9 µM (inactive) | > 100 µM (inactive) | 20.5 µM (inactive) | – | – | – | –
O=[As](O)(O)c1ccc(/N=N/c2ccc([As](=O)(O)O)cc2)cc1 | > 100 µM (inactive) | > 100 µM (inactive) | > 100 µM (inactive) | – | – | – | –
CC[C@H](C)[C@H]1NC(=O)[C@@H](NC(=O)[C@@H](CC(C)C)N(C)C(=O)C2CCCN2C(=O)[C@H](C)O)[C@@H](C)OC(=O)[C@@H]2Cc3ccccc3CN2C(=O)[C@@H]2CCCN2C(=O)[C@H](CC(C)C)NC(=O)[C@@H](C)C(=O)[C@H](C(C)C)OC(=O)C[C@@H]1O (some centres not stated) | 0.314 µM (active) | 1.04 µM (active) | 0.323 µM (active) | – | – | – | –
CC(Br)C(=O)NN1C2=C(Nc3ccccc31)c1cccc3cccc2c13 (configuration not stated) | 58.9 µM (inactive) | > 100 µM (inactive) | 2.29 µM (inactive) | – | – | – | –
